Test results reported in patent US9394520B2, “Expansion of hematopoietic stem cells” (University of Rochester, priority 2006, dated 2016).

What was measured:
[1] = system: Jagged1; test: Jagged1 mRNA by real time RT-PCR in UMR106 cells; type: cell-based; settings: UMR106 cells, PGE2 10^−7 M, at 2 hours, corrected for beta-actin
Experimental: UMR 106 cells were serum starved for 24 hours and then treated with a single dose of vehicle (controls) or PGE2 at a concentration of 10^-7 M. RNA was collected from both control and treated samples to assess the fold change in Jagged1 mRNA by real time RT-PCR analysis corrected for by beta-actin. FIG. 1B is a Western blot showing total protein that was collected from both control and treated samples exposed to Jagged1 antibody, C20. Positive control (+ctr) was provided by HS27a cells, a human stromal cell line with high levels of Jagged1 protein, while HS5 cells from a human stromal cell line with minimal Jagged1 levels were used as a negative control. […] UMR106 cells were serum starved for 24 hours. They were pre-treated with H89 for 30 minutes followed by a single dose of PGE2 at 10^-7 M or vehicle. RNA was collected from both control and treated samples to assess the fold change in Jagged1 RNA by real time RT-PCR analysis corrected for by β-actin. […] UMR106 cells were serum starved for 24 hours. […] Total protein was collected from both PGE2 and vehicle treated samples for Western blot analysis with Jagged1 antibody C-20. UMR106 cells were grown in DMEM supplemented with 1.5 g/l sodium bicarbonate, 10% FBS, penicillin (100 U/ml), streptomycin (100 U/ml). After three days of growth the cells were 80% confluent and media was replaced with serum-free media. After 24 hr in serum-free media, PGE2 was added in noted concentrations. UMR 106 cells were treated with the Protein Kinase A (PKA) inhibitors H89 (0.5 hr prior to PGE2 treatment), and myristoylated PKI (0.5 hr prior to PGE2 treatment). […] At the designated times, total RNA and protein were harvested. Total RNA was extracted and analyzed by real time RT-PCR, normalizing for β-actin expression and t=0. Total protein was analyzed by Western blots performed using the […] system (Invitrogen, Carlsbad, Calif.). Blots were probed with Jag1 c-20 antibody (Santa Cruz Biotechnology, Inc., Santa Cruz, Calif.), and the loading control was B-actin.

[2] = system: lethally irradiated recipient mice; test: Survival of lethally irradiated recipients of suboptimal BMMC from treated donors; type: in vivo
Excerpt: FIGS. 14A and 14B are graphs showing survival analysis by the method of Kaplan-Meyer in lethally irradiated recipients of suboptimal BMMC (1.5×10^5 donor BMMC (A) and 0.75×10^5 donor BMMC (B)) from vehicle or PGE2-treated donors.
Moreover, since ST-HSC confer radioprotection, PGE2-dependent ST-HSC expansion would be expected to improve survival of lethally irradiated recipients receiving limiting numbers of BMMC from PGE2 vs vehicle-treated mice. To test this hypothesis, adult C57Bl/6 donor mice were treated with PGE2 or vehicle prior to bone marrow harvest. Recipient mice received myeloablative doses of radiation and suboptimal BMMC numbers (FIGS. 14A and 14B).

[3] = system: Jagged1; test: Jagged1 protein by Western blot in UMR106 cells; type: cell-based; settings: UMR106 cells after treatment with PGE2, Western blot, antibody C-20
Experimental: UMR 106 cells were serum starved for 24 hours and then treated with a single dose of vehicle (controls) or PGE2 at a concentration of 10^-7 M. RNA was collected from both control and treated samples to assess the fold change in Jagged1 mRNA by real time RT-PCR analysis corrected for by beta-actin. FIG. 1B is a Western blot showing total protein that was collected from both control and treated samples exposed to Jagged1 antibody, C20. Positive control (+ctr) was provided by HS27a cells, a human stromal cell line with high levels of Jagged1 protein, while HS5 cells from a human stromal cell line with minimal Jagged1 levels were used as a negative control. FIG. 2A is a graph showing that inhibition of PKA blocks PGE2-dependent increase of Jagged1 in UMR 106 cells. UMR106 cells were serum starved for 24 hours. They were pre-treated with H89 for 30 minutes followed by a single dose of PGE2 at 10^-7 M or vehicle. RNA was collected from both control and treated samples to assess the fold change in Jagged1 RNA by real time RT-PCR analysis corrected for by β-actin. […] UMR106 cells were serum starved for 24 hours. […] Total RNA was extracted and analyzed by real time RT-PCR, normalizing for β-actin expression and t=0. Total protein was analyzed by Western blots performed using the […] system (Invitrogen, Carlsbad, Calif.). […]

[4] = system: ST-HSC / LT-HSC activity; test: Colony Forming Unit-Spleen (CFU-S) assay; type: in vivo, mice
Excerpt: FIG. 13A show CFU-S images of selected spleens after fixation. FIGS. 13B and 13C are graphs showing quantification of colonies per spleen at days 8 (FIG. 13B) and 10 (FIG. 13C) after transplantation.
ST vs LT-HSC activity can also be quantified by the in vivo clonogenic Colony Forming Unit-Spleen (CFU-S) assay, where day 8 CFU-S is closely associated with ST-HSC, while day 10-12 CFU-S are associated with LT-HSC activity.

[5] = system: bone; test: Bone analysis (microCT, histology) of PGE2-treated mice; type: in vivo
Experimental: FIG. 6A is a graph showing quantification of bone volume performed by microCT analysis of femora from mice treated with PGE2 (6 mg/kg i.p. daily for 16 days (n=8)).
Eight to ten week old FVB/N male mice were injected intraperitoneally once or twice daily for 16 days with either PGE2 (6 mg/kg body weight) or vehicle. Left hind limbs were harvested, fixed, decalcified, and processed. Right hindlimbs were harvested at the same time.
Adult C57Bl/6 male mice were treated with PGE2 for 16 days.

CCCCC[C@H](O)/C=C/[C@H]1[C@H](O)CC(=O)[C@@H]1C/C=C\CCCC(=O)O [PGE2, Prostaglandin E2]
Jagged1 mRNA increase compared to vehicle [1]: up to 5 fold
survival 30 days after transplantation ([2]; 75,000 donor cells from treated donors, p=0.0173): 53%
survival 30 days after transplantation ([2]; 150,000 donor cells from treated donors, p=0.0018): 80%
Jagged1 protein [3]: increased
CFU-Sd8 ([4]; day 8, BMMC from treated mice, n=4, p=0.0053): 10.5 CFU-S per 60,000 BMMC
CFU-Sd10 ([4]; day 10, BMMC from treated mice, n=6, p=0.4950): 12.5 CFU-S per 60,000 BMMC
bone anabolic effect in long bones, histologically or by micro-CT imaging ([5]; adult C57Bl/6 male mice, 16 days): no evidence of a significant bone anabolic effect
bone volume by microCT analysis ([5]; adult FVB/N male mice, 6 mg/kg/day i.p., day 12): no significant increase
cortical width of the tibia ([5]; in vivo treatment with PGE2): significantly increased
tibial metaphyseal trabecularization ([5]; in vivo treatment with PGE2): increased
